Test results as given in US11344652B2, “Ionic liquids that sterilize and prevent biofilm formation in skin wound healing devices” (The Arizona Board of Regents on Behalf of Northern Arizona …, priority 2016, dated 2022).
Several values for one entry are separate records, joined by “and”; a condition that tells them apart may be missing. Equal values may be shown once.

Assay: Physical characterization of CAGE at 25° C.
Format: physicochemical
Procedure: Physical characterization at 25° C. was in good agreement with published values and was as follows: density, 0.989±0.001 g mL^−1; and conductivity, 0.0427±0.0005 mS cm^−1.
Physicochemical properties were identical to those previously published confirming purity (Zakrewsky et al., PNAS, 2014, 111, 13313; incorporated by reference herein in its entirety, and for the disclosure referenced herein). CAGE has unique properties based upon the 1:1:1 ratio of cation:anion:protonated acid. This is important since it gives rise to the low conductivity determined for CAGE (0.043 mS cm^−1) and is a potential indicator of anti-biofilm efficacy but, also provides insight to minimized skin irritation potential.

Question: Which results are given for choline geranate [CAGE]?
Answer: conductivity: 0.0427±0.0005 mS cm^−1 and 0.043 mS cm^−1; density: 0.989 ± 0.001 g/mL
